Measured values: ChEMBL document CHEMBL5291721, “A preclinical secondary pharmacology resource illuminates target-adverse drug reaction associations of marketed drugs” (Nat Commun, 2023)
Where a SMILES comes first, the peptide text is derived from it.

Experiments:
Vasopressin V2 receptor = Vasopressin V2 receptor (Homo sapiens, UniProt P30518)
[1] = molecular target: Muscarinic acetylcholine receptor M3 (Homo sapiens, UniProt P20309)
Endothelin-1 receptor = molecular target: T1, Endothelin-1 receptor (Homo sapiens, UniProt P25101)
T1 sequence (P25101 whole entry): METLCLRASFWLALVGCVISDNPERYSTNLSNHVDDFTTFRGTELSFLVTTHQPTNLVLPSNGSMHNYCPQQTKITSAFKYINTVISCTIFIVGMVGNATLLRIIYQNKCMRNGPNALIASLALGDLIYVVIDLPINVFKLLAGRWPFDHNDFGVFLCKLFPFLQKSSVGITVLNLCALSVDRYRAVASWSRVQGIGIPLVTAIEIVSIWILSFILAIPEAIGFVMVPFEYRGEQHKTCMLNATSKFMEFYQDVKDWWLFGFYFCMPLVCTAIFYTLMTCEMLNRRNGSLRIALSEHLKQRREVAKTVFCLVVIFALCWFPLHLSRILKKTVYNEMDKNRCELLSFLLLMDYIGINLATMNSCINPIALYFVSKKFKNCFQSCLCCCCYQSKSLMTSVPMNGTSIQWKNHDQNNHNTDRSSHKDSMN

Estrogen receptor = molecular target: T2, Estrogen receptor (Homo sapiens, UniProt P03372)
T2 sequence (P03372 whole entry): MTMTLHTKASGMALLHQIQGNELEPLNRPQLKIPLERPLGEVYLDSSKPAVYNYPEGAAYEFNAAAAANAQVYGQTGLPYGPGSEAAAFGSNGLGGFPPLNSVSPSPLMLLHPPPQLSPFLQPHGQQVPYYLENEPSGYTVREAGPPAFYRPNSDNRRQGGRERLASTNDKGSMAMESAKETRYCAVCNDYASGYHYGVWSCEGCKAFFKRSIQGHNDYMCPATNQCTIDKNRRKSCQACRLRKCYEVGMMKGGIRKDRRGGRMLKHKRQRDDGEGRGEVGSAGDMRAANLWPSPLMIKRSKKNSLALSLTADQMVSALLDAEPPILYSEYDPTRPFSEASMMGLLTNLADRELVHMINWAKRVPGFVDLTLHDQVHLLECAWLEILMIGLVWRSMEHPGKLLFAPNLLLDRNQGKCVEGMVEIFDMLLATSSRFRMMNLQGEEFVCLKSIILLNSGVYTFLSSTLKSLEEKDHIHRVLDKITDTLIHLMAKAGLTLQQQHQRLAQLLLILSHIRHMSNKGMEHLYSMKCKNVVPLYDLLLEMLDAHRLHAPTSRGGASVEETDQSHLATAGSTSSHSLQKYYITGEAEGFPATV

[2] = molecular target: T3, 5-hydroxytryptamine receptor 2B (Homo sapiens, UniProt P41595); assay type: functional, cell-based
[3] = molecular target: T3, 5-hydroxytryptamine receptor 2B; assay type: functional, cell-based; remark: listed apart in the source
Glucocorticoid receptor = molecular target: T4, Glucocorticoid receptor (Homo sapiens, UniProt P04150)
T4 sequence (P04150 whole entry): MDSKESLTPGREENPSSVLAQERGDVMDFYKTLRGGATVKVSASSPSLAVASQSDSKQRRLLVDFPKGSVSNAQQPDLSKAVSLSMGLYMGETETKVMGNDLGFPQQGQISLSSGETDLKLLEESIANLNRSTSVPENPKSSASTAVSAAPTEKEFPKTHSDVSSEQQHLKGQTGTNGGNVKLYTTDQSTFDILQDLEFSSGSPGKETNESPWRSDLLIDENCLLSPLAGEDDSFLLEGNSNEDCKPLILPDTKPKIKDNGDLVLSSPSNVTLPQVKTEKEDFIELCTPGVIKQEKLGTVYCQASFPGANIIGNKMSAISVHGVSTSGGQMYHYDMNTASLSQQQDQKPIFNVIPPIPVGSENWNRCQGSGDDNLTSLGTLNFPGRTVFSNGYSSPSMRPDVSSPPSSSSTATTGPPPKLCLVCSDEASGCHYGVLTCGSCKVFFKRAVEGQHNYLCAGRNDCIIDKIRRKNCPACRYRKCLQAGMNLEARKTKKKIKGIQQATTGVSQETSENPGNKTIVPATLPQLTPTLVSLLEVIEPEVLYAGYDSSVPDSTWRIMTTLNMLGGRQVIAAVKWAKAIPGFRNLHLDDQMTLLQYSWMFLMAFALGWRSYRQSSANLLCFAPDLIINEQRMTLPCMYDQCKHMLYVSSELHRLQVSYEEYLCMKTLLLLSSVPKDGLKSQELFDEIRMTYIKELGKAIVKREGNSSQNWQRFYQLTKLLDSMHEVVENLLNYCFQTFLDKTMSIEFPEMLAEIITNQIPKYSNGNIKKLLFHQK

[4] = molecular target: T5, Amine oxidase [flavin-containing] A (Homo sapiens, UniProt P21397); assay type: functional
T5 sequence (P21397 whole entry): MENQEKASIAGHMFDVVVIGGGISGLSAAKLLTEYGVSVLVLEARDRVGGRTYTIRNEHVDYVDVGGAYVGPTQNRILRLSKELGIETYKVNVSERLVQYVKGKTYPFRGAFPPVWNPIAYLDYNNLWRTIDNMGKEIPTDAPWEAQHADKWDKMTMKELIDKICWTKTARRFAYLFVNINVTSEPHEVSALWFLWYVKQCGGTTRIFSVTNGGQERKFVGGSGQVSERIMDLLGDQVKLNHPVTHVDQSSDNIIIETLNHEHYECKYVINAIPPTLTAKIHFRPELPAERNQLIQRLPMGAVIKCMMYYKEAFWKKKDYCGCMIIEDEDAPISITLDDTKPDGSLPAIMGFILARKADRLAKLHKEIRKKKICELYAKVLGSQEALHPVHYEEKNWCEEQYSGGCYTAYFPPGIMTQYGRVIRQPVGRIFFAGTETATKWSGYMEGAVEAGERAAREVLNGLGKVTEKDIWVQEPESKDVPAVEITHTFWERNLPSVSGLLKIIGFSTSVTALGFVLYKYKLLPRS

D(3) dopamine receptor = D(3) dopamine receptor (Homo sapiens, UniProt P35462)
Note: assay procedure not described here.

Chain of Muscarinic acetylcholine receptor M3 (P20309 whole entry): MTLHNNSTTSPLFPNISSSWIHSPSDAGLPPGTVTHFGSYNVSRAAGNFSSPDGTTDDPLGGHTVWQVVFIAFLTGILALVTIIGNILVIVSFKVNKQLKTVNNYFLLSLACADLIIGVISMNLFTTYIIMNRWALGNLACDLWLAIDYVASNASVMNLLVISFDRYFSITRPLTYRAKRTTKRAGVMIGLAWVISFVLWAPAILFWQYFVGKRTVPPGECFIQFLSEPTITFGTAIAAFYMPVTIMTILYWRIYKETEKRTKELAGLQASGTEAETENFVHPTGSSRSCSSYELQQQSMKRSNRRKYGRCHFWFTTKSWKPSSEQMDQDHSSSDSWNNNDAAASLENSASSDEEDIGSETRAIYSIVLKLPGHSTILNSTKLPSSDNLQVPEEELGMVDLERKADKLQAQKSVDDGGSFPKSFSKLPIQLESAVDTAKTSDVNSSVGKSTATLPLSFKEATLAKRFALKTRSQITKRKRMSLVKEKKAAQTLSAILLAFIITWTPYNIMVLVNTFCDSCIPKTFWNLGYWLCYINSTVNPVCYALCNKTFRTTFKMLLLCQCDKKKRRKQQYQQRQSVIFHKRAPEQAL
Chain of Vasopressin V2 receptor (P30518 whole entry): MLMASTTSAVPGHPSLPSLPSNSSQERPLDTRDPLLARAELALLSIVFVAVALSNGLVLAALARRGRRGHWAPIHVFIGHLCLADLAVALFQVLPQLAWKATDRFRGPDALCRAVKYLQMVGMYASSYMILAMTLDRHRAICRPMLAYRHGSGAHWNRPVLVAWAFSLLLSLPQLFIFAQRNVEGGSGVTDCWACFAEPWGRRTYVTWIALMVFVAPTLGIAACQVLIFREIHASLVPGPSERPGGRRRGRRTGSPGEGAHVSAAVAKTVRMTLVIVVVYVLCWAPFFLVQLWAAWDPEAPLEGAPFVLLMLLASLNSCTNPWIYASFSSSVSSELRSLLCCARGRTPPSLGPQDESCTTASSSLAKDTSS
Chain of D(3) dopamine receptor (P35462 whole entry): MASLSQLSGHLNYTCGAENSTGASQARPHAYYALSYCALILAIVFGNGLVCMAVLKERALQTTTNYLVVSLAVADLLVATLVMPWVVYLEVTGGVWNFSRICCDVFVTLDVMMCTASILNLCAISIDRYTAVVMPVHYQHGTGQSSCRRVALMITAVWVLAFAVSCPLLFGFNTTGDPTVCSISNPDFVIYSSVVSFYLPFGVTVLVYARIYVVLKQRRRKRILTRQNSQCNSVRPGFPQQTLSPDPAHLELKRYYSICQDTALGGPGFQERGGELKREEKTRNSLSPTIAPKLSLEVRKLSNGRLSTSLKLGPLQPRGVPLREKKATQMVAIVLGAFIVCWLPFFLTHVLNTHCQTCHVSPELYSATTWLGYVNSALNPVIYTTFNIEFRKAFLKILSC
T3 sequence (P41595 whole entry): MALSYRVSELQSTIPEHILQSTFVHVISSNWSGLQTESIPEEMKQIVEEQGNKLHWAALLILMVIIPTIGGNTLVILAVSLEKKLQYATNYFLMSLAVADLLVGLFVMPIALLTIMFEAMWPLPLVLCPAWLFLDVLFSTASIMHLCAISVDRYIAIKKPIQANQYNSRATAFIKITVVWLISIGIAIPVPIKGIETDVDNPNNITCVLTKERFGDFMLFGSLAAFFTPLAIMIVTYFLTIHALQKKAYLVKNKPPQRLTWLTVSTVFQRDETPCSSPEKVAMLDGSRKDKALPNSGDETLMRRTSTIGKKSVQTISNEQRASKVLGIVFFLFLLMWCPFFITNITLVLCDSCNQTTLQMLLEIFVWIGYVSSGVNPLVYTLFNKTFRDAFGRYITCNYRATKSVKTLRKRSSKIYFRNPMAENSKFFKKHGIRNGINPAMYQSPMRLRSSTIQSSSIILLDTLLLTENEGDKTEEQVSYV

SMILES	AC50 (Vasopressin V2 receptor) [µM]	AC50 [1] [µM]	AC50 (Endothelin-1 receptor) [µM]	AC50 (Estrogen receptor) [µM]	AC50 [2] [µM]	AC50 [3] [µM]	AC50 (Glucocorticoid receptor) [µM]	AC50 [4] [µM]	AC50 (D(3) dopamine receptor) [µM]
O=C(O)c1ccc2nc(-c3cc(Cl)cc(Cl)c3)oc2c1	> 30	> 30	> 30	> 30	> 30	> 30	> 30	18	> 1
NS(=O)(=O)c1ccc(N2CCCCS2(=O)=O)cc1	> 30	> 30	> 30	> 30	> 30	> 30	> 30	> 30	> 30
C[C@H](N)C(=O)N[C@@H](CCC(N)=O)C(=O)O [ALANYL GLUTAMINE] (H-Ala-Gln-OH)	> 30	> 30	> 30	> 30	> 30	> 30	> 30	15	> 30
COc1cc(N)cn[n+]1-c1ccccc1 [AMEZINIUM METILSULFATE]	> 30	> 30	> 30	–	> 30	> 30	–	11	> 30
CNCCc1ccccn1 [BETAHISTINE]	> 30	–	> 30	–	> 30	> 30	> 30	> 30	> 30
O=C(O)CCCC[C@@H]1SC[C@@H]2NC(=O)N[C@@H]21 [BIOTIN]	> 10	> 30	–	> 10	> 10	> 10	> 10	> 10	> 30
CCCCOC(=O)c1ccc(N)cc1 [BUTAMBEN]	> 30	–	> 30	> 30	> 30	> 30	> 30	> 30	> 30
CO/N=C(\C(=O)N[C@@H]1C(=O)N2C(C(=O)O)=C(CSc3nc(C)c(CC(=O)O)s3)CS[C@H]12)c1csc(N)n1 [CEFODIZIME]	> 30	> 30	> 30	> 30	> 30	> 30	> 30	> 30	> 30
CO/N=C(\C(=O)N[C@@H]1C(=O)N2C(C(=O)[O-])=C(C[n+]3ccc(N)n3CCO)CS[C@H]12)c1csc(N)n1 [CEFOSELIS]	> 30	> 30	> 30	–	> 30	> 30	> 30	> 30	> 30
CC(=O)OCC1=C(C(=O)O)N2C(=O)[C@@H](NC(=O)Cc3cccs3)[C@H]2SC1 [CEPHALOTHIN]	> 30	> 30	> 30	–	> 30	> 30	> 30	> 30	> 30
CC(=O)Oc1cccc2c1C(=O)c1c(OC(C)=O)cc(C(=O)O)cc1C2=O [DIACEREIN]	> 30	> 30	> 30	–	> 10	–	> 30	> 30	> 30
OCCN(CCO)c1nc(N2CCCCC2)c2nc(N(CCO)CCO)nc(N3CCCCC3)c2n1 [DIPYRIDAMOLE]	> 30	–	–	> 30	15	> 30	–	> 30	> 30
CCc1ccc(C(=O)C(C)CN2CCCCC2)cc1 (stereo unspecified) [EPERISONE]	> 30	–	> 30	–	> 30	> 30	> 30	> 30	9.4
CC(=O)OCC(=O)[C@@]1(O)CC[C@H]2[C@@H]3CCC4=CC(=O)CC[C@]4(C)[C@@]3(F)[C@@H](O)C[C@@]21C [FLUDROCORTISONE ACETATE]	> 30	–	> 30	> 30	> 30	> 30	–	–	> 30
COc1ccc2c3c1O[C@H]1C(=O)CC[C@H]4[C@@H](C2)N(C)CC[C@]314 [HYDROCODONE]	> 30	> 10	> 30	> 30	> 10	> 10	–	> 10	> 10
CCN(CC)CC(=O)Nc1c(C)cccc1C [LIDOCAINE]	> 30	–	> 30	–	–	–	> 30	–	–
COc1nc(C)nc(Cl)c1N=C1NCCN1 [MOXONIDINE]	> 30	–	> 30	–	> 30	> 30	> 30	> 30	> 30
COC(=O)c1ccc2c(c1)NC(=O)/C2=C(\Nc1ccc(N(C)C(=O)CN2CCN(C)CC2)cc1)c1ccccc1 [NINTEDANIB]	> 30	> 30	> 30	–	> 30	> 30	> 30	> 30	> 30
CCN(CC)Cc1nccn1-c1ccc([N+](=O)[O-])cc1C(=O)c1ccccc1Cl [NIZOFENONE]	> 30	> 30	> 30	–	> 30	> 30	> 30	> 30	> 30
CN1CCCN=C1/C=C/c1cccc(O)c1 [OXANTEL]	> 30	> 30	> 30	–	> 30	> 30	> 30	21	> 30
CCCCOC(=O)C(=O)Nc1cccc(-c2nnn[nH]2)c1 [TAZANOLAST]	> 30	> 30	> 30	> 30	> 30	> 30	–	> 30	> 30
OCC(CO)N[C@H]1C[C@](O)(CO)[C@@H](O)[C@H](O)[C@H]1O [VOGLIBOSE]	> 30	> 30	–	> 30	> 30	> 30	> 30	> 30	> 30
